In PubChem BioAssay (NCI):
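The concentration for 50% growth inhibition is given as GI50. The concentration for full growth arrest is given as TGI.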

Columns and labels:
Experiment in all cases: NCI anticancer screen, dose series, 384-well format
[1] = test system: 786-0 renal
[2] = test system: A498 renal
[3] = test system: A549 NSCLC
[4] = test system: ACHN renal
[5] = test system: BT-549 breast
[6] = test system: CAKI-1 renal
[7] = test system: CCRF-CEM leukemia
[8] = test system: COLO 205 colon
[9] = test system: DU-145 prostate
[10] = test system: HCC-2998 colon
[11] = test system: HCT-116 colon
[12] = test system: HCT-15 colon
[13] = test system: HL-60(TB) leukemia
[14] = test system: HOP-62 NSCLC
[15] = test system: HOP-92 NSCLC
[16] = test system: HT29 colon
[17] = test system: IGROV1 ovarian
[18] = test system: K-562 leukemia
[19] = test system: KM12 colon
[20] = test system: LOX IMVI melanoma
[21] = test system: M14 melanoma
[22] = test system: MALME-3M melanoma
[23] = test system: MCF7 breast
[24] = test system: MDA-MB-231 breast
[25] = test system: MDA-MB-435 melanoma
[26] = test system: MDA-MB-468 breast
[27] = test system: MOLT-4 leukemia
[28] = test system: NCI-H226 lung
[29] = test system: NCI-H23 lung
[30] = test system: NCI-H322M lung
[31] = test system: NCI-H460 NSCLC
[32] = test system: NCI-H522 lung
[33] = test system: NCI/ADR-RES ovarian
[34] = test system: OVCAR-3 ovarian
[35] = test system: OVCAR-4 ovarian
[36] = test system: OVCAR-5 ovarian
[37] = test system: OVCAR-8 ovarian
[38] = test system: PC-3 prostate
[39] = test system: RPMI-8226 leukemia
[40] = test system: RXF 393 renal
[41] = test system: SF-268 CNS
[42] = test system: SF-295 CNS
[43] = test system: SF-539 CNS
[44] = test system: SK-MEL-2 melanoma
[45] = test system: SK-MEL-28 melanoma
[46] = test system: SK-MEL-5 melanoma
[47] = test system: SK-OV-3 ovarian
[48] = test system: SN12C renal
[49] = test system: SNB-19 CNS
[50] = test system: SR leukemia
[51] = test system: SW-620 colon
[52] = test system: T-47D breast
[53] = test system: TK-10 renal
[54] = test system: U251 glioblastoma
[55] = test system: UACC-257 melanoma
[56] = test system: UACC-62 melanoma
[57] = test system: UO-31 renal
[58] = test system: EKVX NSCLC
[59] = test system: HS 578T breast
[60] = test system: SNB-75 CNS

## COc1ccc(CC(NC(=O)[C@H](C)NC(=O)CN2CCOCC2)C(=O)N[C@@H](Cc2ccccc2)C(=O)[C@@]2(C)CO2)cc1 (stereo partly specified)
[1]
  GI50: 297 nM
  TGI: 1030 nM
[2]
  GI50: 226 nM
  TGI: 545 nM
[3]
  GI50: 319 nM
  TGI: 1080 nM
[4]
  GI50: 509 nM
  TGI: 1690 nM
[5]
  GI50: 175 nM
  TGI: 316 nM
[6]
  GI50: 271 nM
  TGI: 765 nM
[7]
  GI50: 37.4 nM
  TGI: 137 nM
[8]
  GI50: 304 nM
  TGI: 1010 nM
[9]
  GI50: 302 nM
  TGI: 861 nM
[10]
  GI50: 173 nM
  TGI: 312 nM
[11]
  GI50: 167 nM
  TGI: 309 nM
[12]
  GI50: 1810 nM
  TGI: 3390 nM
[13]
  GI50: 147 nM
  TGI: 280 nM
[14]
  GI50: 184 nM
  TGI: 331 nM
[15]
  GI50: 149 nM
  TGI: 294 nM
[16]
  GI50: 181 nM
  TGI: 330 nM
[17]
  GI50: 255 nM
  TGI: 647 nM
[18]
  GI50: 224 nM
  TGI: 468 nM
[19]
  GI50: 165 nM
  TGI: 308 nM
[20]
  GI50: 209 nM
  TGI: 355 nM
[21]
  GI50: 142 nM
  TGI: 278 nM
[22]
  GI50: 136 nM
  TGI: 281 nM
[23]
  GI50: 138 nM
  TGI: 382 nM
[24]
  GI50: 166 nM
  TGI: 309 nM
[25]
  GI50: 141 nM
  TGI: 281 nM
[26]
  GI50: 180 nM
  TGI: 324 nM
[27]
  GI50: 15.5 nM
  TGI: 28.9 nM
[28]
  GI50: 60.5 nM
  TGI: 186 nM
[29]
  GI50: 210 nM
  TGI: 362 nM
[30]
  GI50: 284 nM
  TGI: 860 nM
[31]
  GI50: 181 nM
  TGI: 355 nM
[32]
  GI50: 167 nM
  TGI: 304 nM
[33]
  GI50: 20400 nM
  TGI: 59400 nM
[34]
  GI50: 131 nM
  TGI: 262 nM
[35]
  GI50: 147 nM
  TGI: 284 nM
[36]
  GI50: 192 nM
  TGI: 360 nM
[37]
  GI50: 184 nM
  TGI: 340 nM
[38]
  GI50: 188 nM
  TGI: 333 nM
[39]
  GI50: 23.8 nM
  TGI: 55.4 nM
[40]
  GI50: 135 nM
  TGI: 268 nM
[41]
  GI50: 136 nM
  TGI: 269 nM
[42]
  GI50: 157 nM
  TGI: 294 nM
[43]
  GI50: 175 nM
  TGI: 315 nM
[44]
  GI50: 22.6 nM
  TGI: 93.8 nM
[45]
  GI50: 132 nM
  TGI: 262 nM
[46]
  GI50: 192 nM
  TGI: 345 nM
[47]
  GI50: 171 nM
  TGI: 312 nM
[48]
  GI50: 179 nM
  TGI: 320 nM
[49]
  GI50: 188 nM
  TGI: 347 nM
[50]
  GI50: 30.4 nM
  TGI: 106 nM
[51]
  GI50: 167 nM
  TGI: 312 nM
[52]
  GI50: 159 nM
  TGI: 302 nM
[53]
  GI50: 298 nM
  TGI: 802 nM
[54]
  GI50: 173 nM
  TGI: 316 nM
[55]
  GI50: 123 nM
  TGI: 253 nM
[56]
  GI50: 126 nM
  TGI: 254 nM
[57]
  GI50: 1750 nM
  TGI: 3170 nM

## C[C@@H](Oc1ccc2[nH]nc(/C=C/c3cnn(CCO)c3)c2c1)c1c(Cl)cncc1Cl
[1]
  GI50: 214 nM
  TGI: 1200 nM
[2]
  GI50: 171 nM
  TGI: > 100000 nM
[4]
  GI50: 85.8 nM
  TGI: > 100000 nM
[5]
  GI50: 61.2 nM
  TGI: 229 nM
[7]
  GI50: 25.5 nM
  TGI: 60.5 nM
[8]
  GI50: 24.8 nM
  TGI: 105 nM
[9]
  GI50: 97.2 nM
  TGI: 755 nM
[58]
  GI50: 36.8 nM
  TGI: 757 nM
[10]
  GI50: 399 nM
  TGI: 2120 nM
[12]
  GI50: 117 nM
  TGI: 1250 nM
[13]
  GI50: 31.7 nM
  TGI: 131 nM
[14]
  GI50: 82 nM
  TGI: 1080 nM
[59]
  GI50: 29.7 nM
  TGI: 229 nM
[16]
  GI50: 278 nM
  TGI: > 100000 nM
[19]
  GI50: < 10 nM
  TGI: 145 nM
[20]
  GI50: 70 nM
  TGI: 199 nM
[21]
  GI50: 331 nM
  TGI: 2040 nM
[22]
  GI50: 1120 nM
  TGI: 2340 nM
[23]
  GI50: 46.3 nM
  TGI: 1600 nM
[24]
  GI50: 161 nM
  TGI: 3450 nM
[25]
  GI50: 1140 nM
  TGI: 2500 nM
[27]
  GI50: 19.5 nM
  TGI: 48.8 nM
[29]
  GI50: 43.3 nM
  TGI: 333 nM
[30]
  GI50: 331 nM
  TGI: 2480 nM
[31]
  GI50: 37 nM
  TGI: 1090 nM
[32]
  GI50: 31 nM
  TGI: 554 nM
[33]
  GI50: 227 nM
  TGI: 1410 nM
[34]
  GI50: 74.5 nM
  TGI: 1570 nM
[35]
  GI50: 1500 nM
  TGI: 4750 nM
[36]
  GI50: 111 nM
  TGI: 475 nM
[37]
  GI50: 174 nM
  TGI: 1450 nM
[38]
  GI50: 1280 nM
  TGI: > 100000 nM
[39]
  GI50: 34.3 nM
  TGI: 1330 nM
[40]
  GI50: 54.4 nM
  TGI: 230 nM
[41]
  GI50: 124 nM
  TGI: 384 nM
[42]
  GI50: 71.1 nM
  TGI: 2060 nM
[43]
  GI50: 23.7 nM
  TGI: 154 nM
[44]
  GI50: 606 nM
  TGI: 2130 nM
[45]
  GI50: 1310 nM
  TGI: 2630 nM
[46]
  GI50: 510 nM
  TGI: 1920 nM
[47]
  GI50: 114 nM
[48]
  GI50: 47.7 nM
  TGI: 343 nM
[60]
  GI50: 23.4 nM
  TGI: 213 nM
[51]
  GI50: 60.5 nM
  TGI: 469 nM
[52]
  GI50: 263 nM
  TGI: > 100000 nM
[53]
  GI50: 98.6 nM
  TGI: 606 nM
[54]
  GI50: 156 nM
  TGI: 766 nM
[55]
  GI50: 1150 nM
  TGI: 2530 nM
[56]
  GI50: 1290 nM
  TGI: 2590 nM
